This is an account of results in publication PMC11085544, “Anticholinesterase Activity of Methanolic Extract of Amorpha fruticosa Flowers and Isolation of Rotenoids and Putrescine and Spermidine Derivatives” (Plants, 2024).

What all share (format): biochemical
Assay [1] concerns the target T1, BuChE (butyrylcholinesterase) (Equus caballus, UniProt P81908).
T1 construct: gene BCHE
Kind of assay: Ellman colorimetric assay with equine serum BuChE, % inhibition at […]. A general note: Ellman's reagent forms a yellow product with free thiols.

Assay [2] deals with T2, AChE (acetylcholinesterase) (Electrophorus electricus, UniProt O42275). The assay is described as follows: Ellman colorimetric assay with electric eel AChE, % inhibition at […]. As to conditions: 100 µM.
T2 sequence (O42275 24-633): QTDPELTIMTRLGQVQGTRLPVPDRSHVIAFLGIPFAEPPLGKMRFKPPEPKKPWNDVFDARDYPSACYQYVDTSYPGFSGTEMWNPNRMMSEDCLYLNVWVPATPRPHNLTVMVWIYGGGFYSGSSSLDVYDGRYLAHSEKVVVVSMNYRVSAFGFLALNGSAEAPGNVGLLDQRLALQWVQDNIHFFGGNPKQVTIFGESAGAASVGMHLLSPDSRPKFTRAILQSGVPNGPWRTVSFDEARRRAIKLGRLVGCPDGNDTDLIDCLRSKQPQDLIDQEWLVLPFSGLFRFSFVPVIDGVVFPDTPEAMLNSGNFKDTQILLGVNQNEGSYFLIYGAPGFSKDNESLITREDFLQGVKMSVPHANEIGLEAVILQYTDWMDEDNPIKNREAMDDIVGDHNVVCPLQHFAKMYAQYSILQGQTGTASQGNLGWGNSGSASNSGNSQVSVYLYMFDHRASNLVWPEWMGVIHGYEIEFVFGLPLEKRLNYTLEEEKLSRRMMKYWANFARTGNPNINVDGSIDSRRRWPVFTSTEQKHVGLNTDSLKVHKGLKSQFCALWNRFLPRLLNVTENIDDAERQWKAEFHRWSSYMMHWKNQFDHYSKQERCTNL
In assay [3] the target is T2, AChE (acetylcholinesterase). Kind of assay: Ellman colorimetric assay with electric eel AChE.

T1 sequence (P81908 whole entry): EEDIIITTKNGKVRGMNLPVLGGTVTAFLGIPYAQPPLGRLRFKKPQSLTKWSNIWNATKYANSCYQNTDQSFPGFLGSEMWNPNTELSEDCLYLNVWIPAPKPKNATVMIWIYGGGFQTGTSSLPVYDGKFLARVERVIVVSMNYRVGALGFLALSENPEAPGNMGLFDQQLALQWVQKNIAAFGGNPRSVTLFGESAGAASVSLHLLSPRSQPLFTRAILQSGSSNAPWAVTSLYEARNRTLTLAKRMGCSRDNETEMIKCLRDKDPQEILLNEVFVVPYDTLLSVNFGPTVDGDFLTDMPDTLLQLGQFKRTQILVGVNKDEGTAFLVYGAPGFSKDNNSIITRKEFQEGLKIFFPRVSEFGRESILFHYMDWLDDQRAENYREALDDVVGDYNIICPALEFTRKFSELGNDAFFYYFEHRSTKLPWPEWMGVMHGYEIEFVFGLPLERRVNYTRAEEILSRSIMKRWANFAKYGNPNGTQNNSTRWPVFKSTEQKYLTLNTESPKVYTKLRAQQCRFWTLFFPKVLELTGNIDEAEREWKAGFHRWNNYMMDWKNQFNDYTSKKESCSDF

For the compound `COC1=CC(=O)[C@]2(C=C1OC)OC[C@H]1Oc3c(ccc4c3C=CC(C)(C)O4)C(=O)[C@H]12` [compound 8, amorphispironone], at 100 µM the inhibition in assay [1] was 37.6 ± 2.7%.

As for 6-deoxyclitoriacetal [compound 7], the “% Inhibition of AChE” value in assay [2] is 37.9 ± 5.0. Consider `O=C(/C=C/c1ccc(O)cc1)NCCCCN(CCCNC(=O)/C=C/c1ccc(O)cc1)C(=O)/C=C/c1ccc(O)cc1` [compound 5, N^1,N^5,N^10-(E)-tri-p-coumaroylspermidine], for which, in assay [3], the IC50 – broadly, the midpoint of a concentration-inhibition curve – amounted to 102 ± 8.1 µM. Besides, testing at 100 µM in assay [1] gave an inhibition of 43.8 ± 1.9%.
